Reference: patent publication US20260125382A1, “COMPOUNDS FOR INHIBITING OR DEGRADING CDK2 AND/OR CDK9 AND MEDICINAL USE THEREOF” (KOREA RESEARCH INSTITUTE OF CHEMICAL TECHNOLOGY, priority 2022, published 2026)

Columns and labels:
CDK2 = biological target: T1, CDK2 (Homo sapiens, UniProt P24941); experiment: CDK protein degradation activity (Western blotting), CDK2; format: cell-based; details: MDA-MB-231 cells, 16 hours, Western blot
T1 construct: endogenous in cells; host or cells: MDA-MB-231
Method in brief: (§1)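 MDA-MB-231; cmpd 100 nM / 1 μM / 10 μM final vs DMSO, 16 h. Triton X-100 lysates (pH 7.5, phosphatase/protease inhibitors) → SDS-PAGE → Western blot, anti-CDK2, anti-CDK9, tubulin loading control; densitometry.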

CDK9 = biological target: T2, CDK9 (Homo sapiens, UniProt P50750); experiment: CDK protein degradation activity (Western blotting), CDK9; format: cell-based; details: MDA-MB-231 cells, 16 hours, Western blot
T2 construct: endogenous in cells; host or cells: MDA-MB-231
T2 sequence (P50750 whole entry): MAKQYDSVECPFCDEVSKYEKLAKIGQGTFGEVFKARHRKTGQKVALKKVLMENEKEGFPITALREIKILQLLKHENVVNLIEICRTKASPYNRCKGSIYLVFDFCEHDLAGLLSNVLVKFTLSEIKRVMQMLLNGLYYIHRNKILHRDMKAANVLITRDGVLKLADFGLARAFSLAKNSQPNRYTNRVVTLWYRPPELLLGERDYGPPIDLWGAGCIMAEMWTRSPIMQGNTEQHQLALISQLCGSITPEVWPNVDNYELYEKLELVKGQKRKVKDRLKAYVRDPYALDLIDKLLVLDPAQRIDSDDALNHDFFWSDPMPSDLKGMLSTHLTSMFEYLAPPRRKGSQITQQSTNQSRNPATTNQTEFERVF
Method in brief: as §1

SMILES	Enzyme degradation CDK2 (% remaining) @ 0.1 μM (CDK2)	Enzyme degradation CDK2 (% remaining) @ 1 μM (CDK2)	Enzyme degradation CDK2 (% remaining) @ 10 μM (CDK2)	Enzyme degradation CDK9 (% remaining) @ 0.1 μM (CDK9)	Enzyme degradation CDK9 (% remaining) @ 1 μM (CDK9)	Enzyme degradation CDK9 (% remaining) @ 10 μM (CDK9)
O=C1CC[C@H](N2C(=O)c3ccc(N4CC(N5CCC6(CC5)CC(N5CCN(c7ccc(Nc8ncnc9c8ncn9C8CC(NC(=O)Cc9ccccc9)C8)cc7)CC5)C6)C4)cc3C2=O)C(=O)N1 (stereo partly drawn) [Compound 271, N-((1s,3s)-3-(6-((4-(4-(7-(1-(2-(2,6-dioxopiperidin-3-yl)-1,3-dioxoisoindolin-5-yl)azetidin-3-yl)-7-azaspiro[3.5]nonan-2-yl)piperazin-1-yl)phenyl)amino)-9H-purin-9-yl)cyclobutyl)-2-phenylacetamide]	30%	40%	40%	20%	10%	10%
COc1ccc(C(=O)N2CC(N3CCC4(CC3)CC(N3CCN(c5ccc(Nc6ncnc7c6ncn7[C@H]6C[C@@H](NC(=O)Cc7ccccc7)C6)cc5)CC3)C4)C2)cc1N1CCC(=O)NC1=O [Compound 272, N-((1s,3s)-3-(6-((4-(4-(7-(1-(3-(2,4-dioxotetrahydropyrimidin-1(2H)-yl)-4-methoxybenzoyl)azetidin-3-yl)-7-azaspiro[3.5]nonan-2-yl)piperazin-1-yl)phenyl)amino)-9H-purin-9-yl)cyclobutyl)-2-phenylacetamide]	40/40/40%	40/40/40%	40/40/40%	30%	20%	20%
O=C1CC[C@@H](c2ccc(OCC(=O)N3CC(N4CCC5(CC4)CC(N4CCN(c6ccc(Nc7ncnc8c7ncn8[C@H]7C[C@@H](NC(=O)Cc8ccccc8)C7)cc6)CC4)C5)C3)cc2)C(=O)N1 [Compound 273, N-((1s,3s)-3-(6-((4-(4-(7-(1-(2-(4-(2,6-dioxopiperidin-3-yl)phenoxy)acetyl)azetidin-3-yl)-7-azaspiro[3.5]nonan-2-yl)piperazin-1-yl)phenyl)amino)-9H-purin-9-yl)cyclobutyl)-2-phenylacetamide]	100%	70%	50%	20%	10%	10%
O=C1CC[C@@H](c2cccc(OCC(=O)N3CC(N4CCC5(CC4)CC(N4CCN(c6ccc(Nc7ncnc8c7ncn8[C@H]7C[C@@H](NC(=O)Cc8ccccc8)C7)cc6)CC4)C5)C3)c2)C(=O)N1 [Compound 274, N-((1s,3s)-3-(6-((4-(4-(7-(1-(2-(3-(2,6-dioxopiperidin-3-yl)phenoxy)acetyl)azetidin-3-yl)-7-azaspiro[3.5]nonan-2-yl)piperazin-1-yl)phenyl)amino)-9H-purin-9-yl)cyclobutyl)-2-phenylacetamide]	30%	20%	20%	30/30/30%	30/30/30%	30/30/30%
O=C1CCC(c2ccc(OCC(=O)N3CC(CN4CCC5(CC4)CC(N4CCN(c6ccc(Nc7ncnc8c7ncn8[C@H]7C[C@@H](NC(=O)Cc8ccccc8)C7)cc6)CC4)C5)C3)cc2)C(=O)N1 (stereo partly drawn) [Compound 275, N-((1s,3s)-3-(6-((4-(4-(7-((1-(2-(4-(2,6-dioxopiperidin-3-yl)phenoxy)acetyl)azetidin-3-yl)methyl)-7-azaspiro[3.5]nonan-2-yl)piperazin-1-yl)phenyl)amino)-9H-purin-9-yl)cyclobutyl)-2-phenylacetamide]	80%	60%	60%	70%	30%	0%
O=C1CC[C@@H](c2cccc(OCC(=O)N3CC(CN4CCC5(CC4)CC(N4CCN(c6ccc(Nc7ncnc8c7ncn8[C@H]7C[C@@H](NC(=O)Cc8ccccc8)C7)cc6)CC4)C5)C3)c2)C(=O)N1 [Compound 276, N-((1s,3s)-3-(6-((4-(4-(7-((1-(2-(3-(2,6-dioxopiperidin-3-yl)phenoxy)acetyl)azetidin-3-yl)methyl)-7-azaspiro[3.5]nonan-2-yl)piperazin-1-yl)phenyl)amino)-9H-purin-9-yl)cyclobutyl)-2-phenylacetamide]	30%	20%	20%	10%	0%	0%

Other lines, results leading:

Enzyme degradation CDK2 (% remaining) @ 0.1 μM (CDK2)	Enzyme degradation CDK2 (% remaining) @ 1 μM (CDK2)	Enzyme degradation CDK2 (% remaining) @ 10 μM (CDK2)	Enzyme degradation CDK9 (% remaining) @ 0.1 μM (CDK9)	Enzyme degradation CDK9 (% remaining) @ 1 μM (CDK9)	Enzyme degradation CDK9 (% remaining) @ 10 μM (CDK9)	SMILES
50%	40%	40%	20%	0%	0%	O=C1CC[C@H](N2C(=O)c3cccc(NCC(=O)N4CCC5(CC(N6CCN(c7ccc(Nc8ncnc9c8ncn9C8CC(NC(=O)Cc9ccccc9)C8)cc7)CC6)C5)C4)c3C2=O)C(=O)N1 (stereo partly drawn) [Compound 263, N-((1s,3s)-3-(6-((4-(4-(6-((2-(2,6-dioxopiperidin-3-yl)-1,3-dioxoisoindolin-4-yl)glycyl)-6-azaspiro[3.4]octan-2-yl)piperazin-1-yl)phenyl)amino)-9H-purin-9-yl)cyclobutyl)-2-phenylacetamide]
50%	20%	10%	90%	40%	0%	O=C1CC[C@H](N2C(=O)c3cccc(OCC(=O)N4CCC5(CC(N6CCN(c7ccc(Nc8ncnc9c8ncn9[C@H]8C[C@@H](NC(=O)Cc9ccccc9)C8)cc7)CC6)C5)C4)c3C2=O)C(=O)N1 (stereo partly drawn) [Compound 264, N-((1s,3s)-3-(6-((4-(4-(6-(2-((2-(2,6-dioxopiperidin-3-yl)-1,3-dioxoisoindolin-4-yl)oxy)acetyl)-6-azaspiro[3.4]octan-2-yl)piperazin-1-yl)phenyl)amino)-9H-purin-9-yl)cyclobutyl)-2-phenylacetamide]
90%	70%	70%	10%	0%	0%	O=C1CC[C@H](N2C(=O)c3ccc(NCC(=O)N4CCC5(CC(N6CCN(c7ccc(Nc8ncnc9c8ncn9[C@H]8C[C@@H](NC(=O)Cc9ccccc9)C8)cc7)CC6)C5)C4)cc3C2=O)C(=O)N1 (stereo partly drawn) [Compound 265, N-((1s,3s)-3-(6-((4-(4-(6-((2-(2,6-dioxopiperidin-3-yl)-1,3-dioxoisoindolin-5-yl)glycyl)-6-azaspiro[3.4]octan-2-yl)piperazin-1-yl)phenyl)amino)-9H-purin-9-yl)cyclobutyl)-2-phenylacetamide]
70%	50%	20%	70%	0%	0%	O=C1CC[C@@H](c2ccc(OCC(=O)N3CCC4(CC(N5CCN(c6ccc(Nc7ncnc8c7ncn8C7CC(NC(=O)Cc8ccccc8)C7)cc6)CC5)C4)C3)cc2)C(=O)N1 (stereo partly drawn) [Compound 268, N-((1s,3s)-3-(6-((4-(4-(6-(2-(4-(2,6-dioxopiperidin-3-yl)phenoxy)acetyl)-6-azaspiro[3.4]octan-2-yl)piperazin-1-yl)phenyl)amino)-9H-purin-9-yl)cyclobutyl)-2-phenylacetamide]
10/10/10%	10/10/10%	10/10/10%	30%	10%	10%	O=C1CCC(c2cccc(OCC(=O)N3CCC4(CC(N5CCN(c6ccc(Nc7ncnc8c7ncn8[C@H]7C[C@@H](NC(=O)Cc8ccccc8)C7)cc6)CC5)C4)C3)c2)C(=O)N1 (stereo partly drawn) [Compound 269, N-((1s,3s)-3-(6-((4-(4-(6-(2-(3-(2,6-dioxopiperidin-3-yl)phenoxy)acetyl)-6-azaspiro[3.4]octan-2-yl)piperazin-1-yl)phenyl)amino)-9H-purin-9-yl)cyclobutyl)-2-phenylacetamide]
40%	30%	30%	40%	30%	30%	O=C1CC[C@H](N2C(=O)c3cccc(N4CC(N5CCC6(CC5)CC(N5CCN(c7ccc(Nc8ncnc9c8ncn9[C@H]8C[C@@H](NC(=O)Cc9ccccc9)C8)cc7)CC5)C6)C4)c3C2=O)C(=O)N1 [Compound 270, N-((1s,3s)-3-(6-((4-(4-(7-(1-(2-(2,6-dioxopiperidin-3-yl)-1,3-dioxoisoindolin-4-yl)azetidin-3-yl)-7-azaspiro[3.5]nonan-2-yl)piperazin-1-yl)phenyl)amino)-9H-purin-9-yl)cyclobutyl)-2-phenylacetamide]
